# Experimental data published in patent US20220305012A1, “L[…] TREATING SLEEP ISSUES” (EISAI R&D MANAGEMENT CO., LTD., priority 2019, published 2022).
# Columns and labels:
# Assay type in all cases: in vivo, human
# [1] = test system: Subjects Having Insomnia Disorder; assay: Example 2: wake after sleep onset in the second half of the night (WASO2H), polysomnography
# Procedure: In some embodiments, a sleep parameter is determined objectively using polysomnography. Polysomnography is the monitoring of multiple electrophysiological parameters during sleep and generally includes measurement of EEG activity, electro-oculographic activity and electromyographic activity, as well as other measurements.
# WASO2H: wake after sleep onset in the second half of the night: minutes of wake during the interval from 240 minutes after lights off until lights on.
# (§1) The treatment period lasted for 31 days. Subjects were randomized in a double-blind manner and received placebo, a tablet containing 5 mg of lemborexant, a tablet containing 10 mg of lemborexant, or a tablet containing 6.25 mg of zolpidem ER.
# (§2) Within 5 minutes of the subject's mean habitual bedtime, study drug was administered and an overnight polysomnogram recording was initiated. At completion of the recording the following morning (Day 2), postural stability and cognitive performance were assessed. On the Day 2 evening, subjects returned to the clinic and a blood sample was collected before administering study drug, and then study drug was administered within 5 minutes of the subject's mean habitual bedtime. Again, a polysomnogram recording was initiated. The next morning (Day 3), postural stability and cognitive performance were assessed. A blood sample was also collected.
# (§3) On Day 29, subjects returned to the clinic. Study drug was administered within 5 minutes of the subject's mean habitual bedtime and a polysomnogram recording was conducted. On the following morning (Day 30), postural stability and cognitive performance were assessed. After 1.5 hours of waketime, subjects rated their morning sleepiness level.
# (§4) On the evening of Day 30, subjects returned to the clinic. A pre-dose blood sample was collected and study drug was again administered within 5 minutes of the subject's mean habitual bedtime. A polysomnogram recording was initiated. The following morning (Day 31), postural stability and cognitive performance were assessed and a blood sample was obtained. The ISI, FSS, EQ-5D-3L and PGI-Insomnia were administered. Blood and urine samples were collected for routine safety assessment. An electrocardiogram was performed, and vital signs and weight were assessed. The eC-SSRS was then administered to the subject. At 1.5 hours after waketime, subjects rated their morning sleepiness level.
# Another key secondary endpoint was to determine the change from baseline for mean wake after sleep onset in the second half of the night on Days 29 and 30 after administration of 5 mg or 10 mg of lemborexant compared to administration of 6.25 mg of zolpidem ER.
# [2] = test system: Subjects Having Insomnia Disorder; assay: Example 2: subjective sleep onset latency (sSOL), sleep diary
# Description: As used herein, the term “subjective sleep onset latency”, abbreviated as “sSOL”, means the estimated number of minutes from the time that the subject attempted to sleep until sleep onset. In some embodiments, sSOL is derived from data entered in a subject's Sleep Diary.
# In some embodiments, sleep diaries were used to assess sleep parameters reported by subjects (i.e., subjective assessments) including subjective sleep onset latency (sSOL), subjective sleep efficiency (sSE), subjective WASO (sWASO), and subjective total sleep time (sTST). Subjects were instructed to complete the Sleep Diary developed based on the consensus Sleep Diary as described in Carney et al., “The consensus sleep diary: standardizing prospective sleep self-monitoring,” Sleep 2012; 35(2):287-302. In some embodiments, the Sleep Diary was used to assess the subject's global perception of quality of sleep on the previous night with the following question: “How would you rate the quality of your sleep last night?” Subjects rated the quality of their sleep on a scale from 1 to 9, with 1 being extremely poor and 9 being extremely good. In some embodiments, the Sleep Diary was used to assess subjective ratings of morning sleepiness with the following question: “How alert/sleepy do you feel this morning?” Subjects rated their sleepiness/alertness level on a Likert scale from 1 to 9, with 1 being extremely sleepy and 9 being extremely alert.
# sSOL—subjective sleep onset latency: estimated minutes from the time that the subject attempted to sleep until sleep onset.
# as §1
# Once home, the subject ingested study drug each night prior to bedtime and completed their sleep diary within 1 hour of waketime.
# [3] = test system: Subjects Having Insomnia Disorder; assay: Example 2: postural stability, body sway upon awakening in morning
# Description: Subjects were provided with a sleep diary and trained on how to record entries. After subjects completed the sleep diary on 7 consecutive mornings, and provided that the subject was still eligible to participate in the study, they attended a second clinical meeting between 10 and 17 days before the randomization phase. The subject was then fitted with a polysomnogram and trained in how to complete the postural stability assessment and cognitive performance assessment battery. Subjects then underwent an 8-hour polysomnogram recording. Within 5 minutes of waking, the postural stability assessment and cognitive assessment battery were conducted on the subject.
# as §2, §3, §4
# An exemplary additional secondary endpoint is the change from baseline on the postural stability test of mean units of body sway on Days 2 and 3 after administration of 5 mg or 10 mg of lemborexant compared to zolpidem.
# [4] = 5 mg, First 7 Nights of Treatment
# [5] = 5 mg, Last 7 Nights of Treatment
# [6] = 10 mg, First 7 Nights of Treatment
# [7] = 10 mg, Last 7 Nights of Treatment
smiles,measurement,setting,value
"Cc1ncc(OC[C@@]2(c3cccc(F)c3)C[C@H]2C(=O)Nc2ccc(F)cn2)c(C)n1 [Lemborexant, (1R,2S)-2-(((2,4-dimethylpyrimidin-5-yl)oxy)methyl)-2-(3-fluorophenyl)-N-(5-fluoropyridin-2-yl)cyclopropanecarboxamide]","Wake After Sleep Onset in the Second Half of the Night, Change from Study Baseline, Mean (SD)","[1]; Days 1/2, Lemborexant 5 mg",−30.28 (32.056)
same,"Wake After Sleep Onset in the Second Half of the Night, Change from Study Baseline, Median","[1]; Days 1/2, Lemborexant 5 mg",−27.63
same,"Wake After Sleep Onset in the Second Half of the Night, Mean (SD)","[1]; Days 1/2, Lemborexant 5 mg",46.32 (25.600)
same,"Wake After Sleep Onset in the Second Half of the Night, Median","[1]; Days 1/2, Lemborexant 5 mg",40.88
same,"Wake After Sleep Onset in the Second Half of the Night, Change from Study Baseline, Mean (SD)","[1]; Days 1/2, Lemborexant 10 mg",−37.10 (30.815)
same,"Wake After Sleep Onset in the Second Half of the Night, Change from Study Baseline, Median","[1]; Days 1/2, Lemborexant 10 mg",−32.00
same,"Wake After Sleep Onset in the Second Half of the Night, Mean (SD)","[1]; Days 1/2, Lemborexant 10 mg",39.78 (23.709)
same,"Wake After Sleep Onset in the Second Half of the Night, Median","[1]; Days 1/2, Lemborexant 10 mg",34.00
same,"Wake After Sleep Onset in the Second Half of the Night, Change from Study Baseline, LSM treatment difference: Lemborexant-Zolpidem","[1]; Days 29/30, Lemborexant 5 mg",−6.65 (2.298)
same,"Wake After Sleep Onset in the Second Half of the Night, Change from Study Baseline, Mean (SD)","[1]; Days 29/30, Lemborexant 5 mg",−27.19 (33.047)
same,"Wake After Sleep Onset in the Second Half of the Night, Change from Study Baseline, Median","[1]; Days 29/30, Lemborexant 5 mg",−25.63
same,"Wake After Sleep Onset in the Second Half of the Night, Mean (SD)","[1]; Days 29/30, Lemborexant 5 mg",49.11 (28.179)
same,"Wake After Sleep Onset in the Second Half of the Night, Median","[1]; Days 29/30, Lemborexant 5 mg",42.13
same,"Wake After Sleep Onset in the Second Half of the Night, Change from Study Baseline, LSM treatment difference: Lemborexant-Zolpidem","[1]; Days 29/30, Lemborexant 10 mg",−8.00 (2.309)
same,"Wake After Sleep Onset in the Second Half of the Night, Change from Study Baseline, Median","[1]; Days 29/30, Lemborexant 10 mg",−27.25
same,"Wake After Sleep Onset in the Second Half of the Night, Mean (SD)","[1]; Days 29/30, Lemborexant 10 mg",48.15 (27.844)
same,"Wake After Sleep Onset in the Second Half of the Night, Median","[1]; Days 29/30, Lemborexant 10 mg",41.75
same,mean wake after sleep onset in the second half of the night,"[1]; all lemborexant treatment groups, relative to baseline, placebo and zolpidem treatment groups (Table 16)",reduced
same,"sSOL Change from Study Baseline, Mean (SD)",[2]; [4],−22.54 (32.812) minutes
same,"sSOL Change from Study Baseline, Median",[2]; [4],-14.86 min
same,"sSOL, Mean (SD)",[2]; [4],42.39 (28.075) minutes
same,"sSOL, Median",[2]; [4],29.64 min
same,"sSOL Change from Study Baseline, Mean (SD)",[2]; [5],−25.20 (34.854) minutes
same,"sSOL Change from Study Baseline, Median",[2]; [5],-18.54 min
same,"sSOL, Mean (SD)",[2]; [5],38.80 (28.028) minutes
same,"sSOL, Median",[2]; [5],30.36 min
same,"sSOL, Mean (SD)","[2]; 5 mg, Study Baseline",65.79 (43.530) minutes
same,"sSOL, Median","[2]; 5 mg, Study Baseline",58.57 min
same,"sSOL Change from Study Baseline, Mean (SD)",[2]; [6],−21.88 (29.269) minutes
same,"sSOL Change from Study Baseline, Median",[2]; [6],-15.00 min
same,"sSOL, Mean (SD)",[2]; [6],38.64 (32.092) minutes
same,"sSOL Change from Study Baseline, Mean (SD)",[2]; [7],−24.79 (34.068) minutes
same,"sSOL Change from Study Baseline, Median",[2]; [7],-17.14 min
same,"sSOL, Mean (SD)",[2]; [7],36.51 (31.059) minutes
same,"sSOL, Median",[2]; [7],27.50 min
same,"sSOL, Mean (SD)","[2]; 10 mg, Study Baseline",60.88 (42.514) minutes
same,"sSOL, Median","[2]; 10 mg, Study Baseline",53.57 min
same,mean subjective sleep onset latency,"[2]; all lemborexant treatment groups, relative to baseline, placebo and zolpidem treatment groups (Table 18)",reduced
same,"Body Sway Upon Awakening in Morning, Change from Study Baseline, Mean (SD)","[3]; Days 2/3, Lemborexant 5 mg",−0.82 ⅓ degree angle of arc
same,"Body Sway Upon Awakening in Morning, Change from Study Baseline, Median","[3]; Days 2/3, Lemborexant 5 mg",−0.50 ⅓ degree angle of arc
same,"Body Sway Upon Awakening in Morning, Mean (SD)","[3]; Days 2/3, Lemborexant 5 mg",25.73 ⅓ degree angle of arc
same,"Body Sway Upon Awakening in Morning, Median","[3]; Days 2/3, Lemborexant 5 mg",21.00 ⅓ degree angle of arc
same,"Body Sway Upon Awakening in Morning, Change from Study Baseline, Mean (SD)","[3]; Days 2/3, Lemborexant 10 mg",0.56 ⅓ degree angle of arc
same,"Body Sway Upon Awakening in Morning, Change from Study Baseline, Median","[3]; Days 2/3, Lemborexant 10 mg",0.50 ⅓ degree angle of arc
same,"Body Sway Upon Awakening in Morning, Mean (SD)","[3]; Days 2/3, Lemborexant 10 mg",24.36 ⅓ degree angle of arc
same,"Body Sway Upon Awakening in Morning, Median","[3]; Days 2/3, Lemborexant 10 mg",20.00 ⅓ degree angle of arc
same,"Body Sway Upon Awakening in Morning, Change from Baseline, Mean (SD)","[3]; Days 30/31, Lemborexant 5 mg",−0.85 ⅓ degree angle of arc
same,"Body Sway Upon Awakening in Morning, Change from Baseline, Median","[3]; Days 30/31, Lemborexant 5 mg",−0.50 ⅓ degree angle of arc
same,"Body Sway Upon Awakening in Morning, Mean (SD)","[3]; Days 30/31, Lemborexant 5 mg",25.10 ⅓ degree angle of arc
same,"Body Sway Upon Awakening in Morning, Median","[3]; Days 30/31, Lemborexant 5 mg",20.50 ⅓ degree angle of arc
same,"Body Sway Upon Awakening in Morning, Change from Baseline, Mean (SD)","[3]; Days 30/31, Lemborexant 10 mg",0.48 ⅓ degree angle of arc
same,"Body Sway Upon Awakening in Morning, Change from Baseline, Median","[3]; Days 30/31, Lemborexant 10 mg",0.50 ⅓ degree angle of arc
same,"Body Sway Upon Awakening in Morning, Mean (SD)","[3]; Days 30/31, Lemborexant 10 mg",22.76 ⅓ degree angle of arc
same,"Body Sway Upon Awakening in Morning, Median","[3]; Days 30/31, Lemborexant 10 mg",18.00 ⅓ degree angle of arc
same,effects on postural stability compared to placebo,[3]; Table 24,no significant effects on postural stability compared to placebo
same,body sway,"[3]; all lemborexant treatment groups, relative to baseline, placebo and zolpidem treatment groups (Table 24)",reduced
